From patent publication US20170333391A1, “METHOD FOR DELAYING THE ONSET OF PULMONARY FIBROSIS OR TREATING PULMONARY FIBROSIS” (EVERFRONT BIOTECH INC., priority 2016, published 2017)

What was measured:
[1] = tested on: type I collagen; assay: Type I collagen expression in TGF-β1-induced NHLF, western blotting (2-1); type: cell-based, human; conditions: uninduced group = 1, TGF-β1-only group = 3.61
Experimental: Normal Human lung fibroblasts (NHLF) were seeded into 6 cm culture dishes at a density of 2×10^5 cells/dish, comprising a control group and three experimental groups (4 dishes in total). The cells were cultured until the next day, and then the mediums were removed. Each group was respectively treated under the following conditions to conduct follow-up experiments: • (1) Positive control group: cells were cultured in a FGM-2 medium containing 1% serum for 36 hours; • (2) Negative control group: cells were cultured in a FGM-2 medium containing 1% serum and TGF-β1 (5 ng/ml) for 36 hours; • (3) Low-dose group: cells were firstly cultured in a FGM-2 medium containing 1% serum and TGF-β1 (5 ng/ml) for 12 hours, and then compound (1) was added into the medium to provide a final concentration of 15 μg/ml; thereafter, the cells were cultured for another 24 hours; and • (4) High-dose group: cells were firstly cultured in a FGM-2 medium containing 1% serum and TGF-β1 (5 ng/ml) for 12 hours, and then compound (1) was added into the medium to provide a final concentration of 25 μg/ml; thereafter, the cells were cultured for another 24 hours.
Thereafter, the proteins in the cells of each group were extracted, and the expressions of type I collagen in the NHLF cells of each group were measured with western blotting, wherein the β-actin served as the internal control. […]

[2] = tested on: TGF-β protein; assay: TGF-β protein in mouse pulmonary tissue, western blotting; type: in vivo, mice; conditions: compared to oil group
Experimental: 24 C57B/L6 mice (age: four weeks) were separated into four groups (6 mice in each group). […]
The samples of mice pulmonary tissue provided by Example 7 and preserved at −20° C. were removed from storage, and then ground in liquid nitrogen. […] The expressions of TGF-β protein, smad3 protein and surfactant C in the samples of each group were measured with western blotting, wherein the actin served as an internal control.

[3] = tested on: TGF-β protein; assay: TGF-β protein expression in transfected NHLF (pcDNA3.1 empty vector or pcDNA3.1-SOX2), western blotting (2-3); type: cell-based, human; conditions: TGF-β1 5 ng/ml 12 h
Experimental: The pcDNA3.1 empty vector and the pcDNA3.1-SOX2 plasmid (i.e., pcDNA3.1 vector containing SOX2 gene) were respectively transfected into Normal Human lung fibroblasts (NHLF) by the Fugene HD cell transfection reagent. The cells were screened to obtain NHLFs containing the pcDNA3.1 empty vector or the pcDNA3.1-SOX2 plasmid.
NHLFs containing the pcDNA3.1 empty vector were then seeded into 6 cm culture dishes at a density of 2×10^5 cells/dish, comprising a control group and three experimental groups (4 dishes in total). The cells were cultured until the next day, and then the mediums were removed. Each group was respectively treated under the following conditions to conduct follow-up experiments: • (1) Control group I: cells were cultured in a FGM-2 medium containing 1% serum for 36 hours; • (2) Group A: cells were cultured in a FGM-2 medium containing 1% serum and TGF-β1 (5 ng/ml) for 36 hours; • (3) Group B: cells were firstly cultured in a FGM-2 medium containing 1% serum and TGF-β1 (5 ng/ml) for 12 hours, and then compound (1) was added into the medium to provide a final concentration of 15 μg/ml; thereafter, the cells were cultured for another 24 hours; and • (4) Group C: cells were firstly cultured in a FGM-2 medium containing 1% serum and TGF-β1 (5 ng/ml) for 12 hours, and then compound (1) was added into the medium to provide a final concentration of 30 μg/ml; thereafter, the cells were cultured for another 24 hours.
In another aspect, NHLFs containing the pcDNA3.1-SOX2 plasmid were seeded into the 6 cm culture dishes at a density of 2×10^5 cells/dish, comprising a control group and three experimental groups (4 dishes in total). The cells were cultured until the next day, and then the mediums were removed. Each group was respectively treated under the following conditions to conduct follow-up experiments: • (1) Control group II: cells were cultured in a FGM-2 medium containing 1% serum for 36 hours; • (2) Group D: cells were cultured in a FGM-2 medium containing 1% serum and TGF-β1 (5 ng/ml) for 36 hours; • (3) Group E: cells were firstly cultured in a FGM-2 medium containing 1% serum and TGF-β1 (5 ng/ml) for 12 hours, and then the compound (1) was added into the medium to provide a final concentration of 15 μg/ml; thereafter, the cells were cultured for another 24 hours; and • (4) Group F: cells were firstly cultured in a FGM-2 medium containing 1% serum and TGF-β1 (5 ng/ml) for 12 hours, and then the compound (1) was added into the medium to provide a final concentration of 30 μg/ml; thereafter, the cells were cultured for another 24 hours.
Thereafter, the proteins in the cells of each group were extracted, and the expressions of Sox2 protein, TGF-β protein and type I collagen in the NHLF cells of each group were measured with western blotting. […]

CCCC=C1OC(=O)c2ccccc21 [compound (1)]
Relative expression level of the type I collagen (fold) ([1]; High-dose group: TGF-β1 5 ng/ml 12 h, then compound (1) 25 μg/ml 24 h): 1.83 fold | Relative expression level of the type I collagen (fold) ([1]; Low-dose group: TGF-β1 5 ng/ml 12 h, then compound (1) 15 μg/ml 24 h): 3.56 fold | expression level of TGF-β protein in pulmonary tissue ([2]; High-dose group, compound (1) 50 mg/kg orally daily 30 days): significantly lower | expression level of TGF-β protein in pulmonary tissue ([2]; Low-dose group, compound (1) 10 mg/kg orally daily 30 days): significantly lower | Relative expression level (fold) TGF-β protein ([3]; Group B: NHLF with pcDNA3.1 empty vector, then compound (1) 15 μg/ml 24 h, control group I = 1, TGF-β1-only group A = 0.84): 0.89 fold | Relative expression level (fold) TGF-β protein ([3]; Group C: NHLF with pcDNA3.1 empty vector, then compound (1) 30 μg/ml 24 h, control group I = 1, TGF-β1-only group A = 0.84): 0.69 fold | Relative expression level (fold) TGF-β protein ([3]; Group E: NHLF with pcDNA3.1-SOX2 plasmid, then compound (1) 15 μg/ml 24 h, control group II = 1, TGF-β1-only group D = 0.86): 0.83 fold | Relative expression level (fold) TGF-β protein ([3]; Group F: NHLF with pcDNA3.1-SOX2 plasmid, then compound (1) 30 μg/ml 24 h, control group II = 1, TGF-β1-only group D = 0.86): 0.71 fold
